# In patent US8946154B2 (BCN Peptides, S.A., priority 2009, dated 2015):
# Numbered stars: 1 amine (or outer) side, 2 acyl side, 3 side chain; on linkers, the order of the positions; unused ones are H or OH. Bridge positions count the residues as written; N and C are the ends. Square brackets hold non-standard residues; d marks the D form. Side chains are listed from the residue outwards. Peptide text beside a SMILES is read from it. * marks the point of attachment. Ethylenediamine = C(CN[*:2])N[*:1]; Hyp = O=C(O)[C@@H]1C[C@@H](O)CN1; Phg = N[C@H](C(=O)O)c1ccccc1; CO = O=C([*:1])[*:2]; Bn = c1ccc(C*)cc1
# Columns and labels:
# [1] = Stability in 90% human serum
# sstr3 receptor = sstr3 receptor (Homo sapiens, UniProt P32745); conditions: literature, background; cited from earlier work
# sstr1 receptor = sstr1 receptor (Homo sapiens, UniProt P30872); conditions: literature, background; cited from earlier work
# sstr4 receptor = sstr4 receptor (Homo sapiens, UniProt P31391); conditions: literature, background; cited from earlier work
# sstr2 receptor = sstr2 receptor (Homo sapiens, UniProt P30874); conditions: literature, background; cited from earlier work
# Sequence of sstr2 receptor (P30874 whole entry): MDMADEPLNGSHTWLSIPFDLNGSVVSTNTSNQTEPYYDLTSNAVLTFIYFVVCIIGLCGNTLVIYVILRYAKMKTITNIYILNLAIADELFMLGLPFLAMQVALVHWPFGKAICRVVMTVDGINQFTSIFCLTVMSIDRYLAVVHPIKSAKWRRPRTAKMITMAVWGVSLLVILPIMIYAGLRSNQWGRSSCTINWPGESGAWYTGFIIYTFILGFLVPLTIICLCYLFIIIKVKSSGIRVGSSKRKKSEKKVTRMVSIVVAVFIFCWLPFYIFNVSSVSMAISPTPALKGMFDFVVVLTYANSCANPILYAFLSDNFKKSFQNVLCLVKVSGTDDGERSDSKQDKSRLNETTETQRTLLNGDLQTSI
# Sequence of sstr1 receptor (P30872 whole entry): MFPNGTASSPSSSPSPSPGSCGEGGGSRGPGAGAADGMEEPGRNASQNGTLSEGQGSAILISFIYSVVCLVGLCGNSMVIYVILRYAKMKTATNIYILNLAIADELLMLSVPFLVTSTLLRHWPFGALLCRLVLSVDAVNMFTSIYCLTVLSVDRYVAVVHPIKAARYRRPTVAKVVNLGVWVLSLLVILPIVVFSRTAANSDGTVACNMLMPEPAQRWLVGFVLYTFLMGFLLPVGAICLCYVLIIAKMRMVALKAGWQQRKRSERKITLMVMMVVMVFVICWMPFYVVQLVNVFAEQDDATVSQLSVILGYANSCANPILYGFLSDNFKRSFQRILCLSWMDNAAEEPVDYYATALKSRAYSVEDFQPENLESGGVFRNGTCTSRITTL
# Sequence of sstr3 receptor (P32745 whole entry): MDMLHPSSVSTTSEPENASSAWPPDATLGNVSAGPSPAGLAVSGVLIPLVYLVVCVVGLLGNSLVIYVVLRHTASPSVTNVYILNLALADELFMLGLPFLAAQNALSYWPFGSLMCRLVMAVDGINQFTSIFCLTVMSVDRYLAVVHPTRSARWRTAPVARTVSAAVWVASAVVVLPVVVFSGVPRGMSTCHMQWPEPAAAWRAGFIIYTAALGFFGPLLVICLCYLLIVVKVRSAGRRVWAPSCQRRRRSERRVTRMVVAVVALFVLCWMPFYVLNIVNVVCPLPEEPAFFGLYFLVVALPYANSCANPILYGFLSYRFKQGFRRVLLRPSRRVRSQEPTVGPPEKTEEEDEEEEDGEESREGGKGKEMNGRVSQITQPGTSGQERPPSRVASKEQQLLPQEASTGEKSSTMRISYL
# Sequence of sstr4 receptor (P31391 whole entry): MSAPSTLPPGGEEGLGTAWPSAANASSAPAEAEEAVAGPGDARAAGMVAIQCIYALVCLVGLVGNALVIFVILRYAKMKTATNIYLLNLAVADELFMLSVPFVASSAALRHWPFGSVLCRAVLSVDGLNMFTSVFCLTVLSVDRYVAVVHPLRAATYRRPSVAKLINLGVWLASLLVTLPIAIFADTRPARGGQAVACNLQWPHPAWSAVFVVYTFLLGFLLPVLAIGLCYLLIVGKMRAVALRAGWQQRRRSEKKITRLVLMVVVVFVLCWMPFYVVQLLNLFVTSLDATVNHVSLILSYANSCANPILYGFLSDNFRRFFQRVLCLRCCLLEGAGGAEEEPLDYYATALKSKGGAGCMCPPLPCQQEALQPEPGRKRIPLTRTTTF
SMILES,half-life [1],affinity for the sstr3 receptor (sstr3 receptor),affinity for the sstr1 receptor (sstr1 receptor),affinity for the sstr4 receptor (sstr4 receptor),affinity for the sstr2 receptor (sstr2 receptor)
CCCCCCCCCCCCCCCC(=O)NCCCC[C@@H]1NC(=O)[C@@H](NC(=O)CNC(=O)[C@H](C)N)CSSC[C@@H](C(=O)O)NC(=O)[C@H](CO)NC(=O)[C@H]([C@@H](C)O)NC(=O)[C@H](Cc2ccccc2)NC(=O)[C@H]([C@@H](C)O)NC(=O)[C@H](CCCCN)NC(=O)[C@H](Cc2c[nH]c3ccccc23)NC(=O)[C@H](Cc2ccccc2)NC(=O)[C@H](Cc2ccccc2)NC(=O)[C@H](CC(N)=O)NC1=O [Compound 21],41.7 h,–,–,–,–
Cc1cc(C)c(C[C@@H]2NC(=O)[C@H](CC(N)=O)NC(=O)[C@H](CCCCN)NC(=O)[C@@H](NC(=O)CNC(=O)[C@H](C)N)CSSC[C@@H](C(=O)O)NC(=O)[C@H](CO)NC(=O)[C@H]([C@@H](C)O)NC(=O)[C@H](Cc3ccccc3)NC(=O)[C@H]([C@@H](C)O)NC(=O)[C@H](CCCCN)NC(=O)[C@H](Cc3c[nH]c4ccccc34)NC(=O)[C@H](Cc3c(C)cc(C)cc3C)NC2=O)c(C)c1 [Compound 27],43.9 h,–,–,–,–
CC(C)[C@@H]1NC(=O)[C@H](CCCCN)NC(=O)[C@@H](Cc2c[nH]c3ccccc23)NC(=O)[C@H](Cc2ccc(O)cc2)NC(=O)[C@@H](NC(=O)[C@H](N)Cc2ccc3ccccc3c2)CSSC[C@@H](C(=O)N[C@H](C(N)=O)[C@@H](C)O)NC1=O [lanreotide],–,moderate-low affinity,do not bind,do not bind,high affinity
C[C@@H](O)[C@@H]1NC(=O)[C@H](CCCCN)NC(=O)[C@@H](Cc2c[nH]c3ccccc23)NC(=O)[C@H](Cc2ccccc2)NC(=O)[C@@H](NC(=O)[C@H](N)Cc2ccccc2)CSSC[C@@H](C(=O)N[C@H](CO)[C@@H](C)O)NC1=O [octreotide],–,moderate-low affinity,do not bind,do not bind,high affinity
NCCCC[C@@H]1NC(=O)[C@@H](Cc2c[nH]c3ccccc23)NC(=O)[C@H](c2ccccc2)NC(=O)[C@@H]2C[C@@H](OC(=O)NCCN)CN2C(=O)[C@H](Cc2ccccc2)NC(=O)[C@H](Cc2ccc(OCc3ccccc3)cc2)NC1=O [pasireotide] (cyclo([Hyp]([CO-Ethylenediamine])[Phg][dW]KY(Bn)F)),–,–,–,lost,an order of magnitude lower
CC(C)[C@@H]1NC(=O)[C@H](CCCCN)NC(=O)[C@@H](Cc2c[nH]c3ccccc23)NC(=O)[C@H](Cc2ccc(O)cc2)NC(=O)[C@@H](NC(=O)[C@H](N)Cc2ccccc2)CSSC[C@@H](C(=O)N[C@@H](Cc2c[nH]c3ccccc23)C(N)=O)NC1=O [vapreotide] (H-[dF]CY[dW]KVCW-NH2; disulfide 2-7),–,moderate-low affinity,do not bind,do not bind,high affinity

# More lines, main results first:
half-life [1],SMILES,affinity for the sstr3 receptor (sstr3 receptor),affinity for the sstr1 receptor (sstr1 receptor),affinity for the sstr4 receptor (sstr4 receptor),affinity for the sstr2 receptor (sstr2 receptor)
26.2 h,Cc1cc(C)c(C[C@@H]2NC(=O)[C@H](CC(N)=O)NC(=O)[C@H](CCCCN)NC(=O)[C@@H](NC(=O)CNC(=O)[C@H](C)N)CSSC[C@@H](C(=O)O)NC(=O)[C@H](CO)NC(=O)[C@H]([C@@H](C)O)NC(=O)[C@H](Cc3ccccc3)NC(=O)[C@H]([C@@H](C)O)NC(=O)[C@H](CCCCN)NC(=O)[C@@H](Cc3c[nH]c4ccccc34)NC(=O)[C@H](Cc3ccccc3)NC2=O)c(C)c1 [Compound 24],–,–,–,–
24.6 h,Cc1cc(C)c(C[C@@H]2NC(=O)[C@H](Cc3ccccc3)NC(=O)[C@H](CC(N)=O)NC(=O)[C@H](CCCCN)NC(=O)[C@@H](NC(=O)CNC(=O)[C@H](C)N)CSSC[C@@H](C(=O)O)NC(=O)[C@H](CO)NC(=O)[C@H]([C@@H](C)O)NC(=O)[C@H](Cc3ccccc3)NC(=O)[C@H]([C@@H](C)O)NC(=O)[C@H](CCCCN)NC(=O)[C@@H](Cc3c[nH]c4ccccc34)NC2=O)c(C)c1 [Compound 25],–,–,–,–
41 h,Cc1cc(C)c(C[C@@H]2NC(=O)[C@H]([C@@H](C)O)NC(=O)[C@H](CCCCN)NC(=O)[C@@H](Cc3c[nH]c4ccccc34)NC(=O)[C@H](Cc3ccccc3)NC(=O)[C@H](Cc3ccccc3)NC(=O)[C@H](CC(N)=O)NC(=O)[C@H](CCCCN)NC(=O)[C@@H](NC(=O)CNC(=O)[C@H](C)N)CSSC[C@@H](C(=O)O)NC(=O)[C@H](CO)NC(=O)[C@H]([C@@H](C)O)NC2=O)c(C)c1 [Compound 26],–,–,–,–
93.3 h,Cc1cc(C)c(C[C@@H]2NC(=O)[C@H](CC(N)=O)NC(=O)[C@H](CCCCN)NC(=O)[C@@H](NC(=O)CNC(=O)[C@H](C)N)CSSC[C@@H](C(=O)O)NC(=O)[C@H](CO)NC(=O)[C@H]([C@@H](C)O)NC(=O)[C@H](Cc3c(C)cc(C)cc3C)NC(=O)[C@H]([C@@H](C)O)NC(=O)[C@H](CCCCN)NC(=O)[C@H](Cc3c[nH]c4ccccc34)NC(=O)[C@H](Cc3c(C)cc(C)cc3C)NC2=O)c(C)c1 [Compound 30],–,–,–,–
